Measurements published in PubChem BioAssay (NCI).
Values joined by “and” are separate entries in the source; they are usually repeats but may differ in a detail not shown here. Equal values may be shown once.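 96-well plates; 48 h exposure; 5 concentrations. Endpoints by linear interpolation between flanking doses. Not reached: highest tested concentration assigned. At the GI50, growth is halved. TGI denotes the concentration required for complete inhibition of growth.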

What was measured:
Assay in all cases: NCI anticancer screen, dose series, 48 h
MDA-MB-435 = test system: MDA-MB-435
NCI/ADR-RES ovarian = test system: NCI/ADR-RES ovarian
HL-60(TB) leukemia = test system: HL-60(TB) leukemia
TK-10 renal = test system: TK-10 renal
MCF7 breast = test system: MCF7 breast
RPMI-8226 leukemia = test system: RPMI-8226 leukemia
SF-268 CNS = test system: SF-268 CNS
UACC-62 melanoma = test system: UACC-62 melanoma
NCI-H522 lung = test system: NCI-H522 lung
SK-MEL-2 melanoma = test system: SK-MEL-2 melanoma

Structure (SMILES) | GI50 (MDA-MB-435) | TGI (MDA-MB-435) | GI50 (NCI/ADR-RES ovarian) | TGI (NCI/ADR-RES ovarian) | GI50 (HL-60(TB) leukemia) | TGI (HL-60(TB) leukemia) | GI50 (TK-10 renal) | TGI (TK-10 renal) | GI50 (MCF7 breast) | TGI (MCF7 breast) | GI50 (RPMI-8226 leukemia) | TGI (RPMI-8226 leukemia) | GI50 (SF-268 CNS) | TGI (SF-268 CNS) | GI50 (UACC-62 melanoma) | TGI (UACC-62 melanoma) | GI50 (NCI-H522 lung) | TGI (NCI-H522 lung) | GI50 (SK-MEL-2 melanoma) | TGI (SK-MEL-2 melanoma)
CNCc1cccc2c1OCCOCCOCCN(C)S(=O)(=O)c1ccc(cc1)-c1cnc(N)c(n1)C(=O)N2 | 1280 nM | 2.69 µM | 14300 nM | 32.6 µM | 578 nM | 3.14 µM | 2060 nM | 20.8 µM | 56.6 nM | 17.9 µM | 4390 nM | 31 µM | 1750 nM | 5.81 µM | 1300 nM | 2.87 µM | 1760 nM | 4.94 µM | 1420 nM | 4.27 µM
COC1N(C2CC(O)C(CO)O2)C(=O)NC(=O)C1(F)Br (configuration not stated) | – | > 100 µM | – | > 100 µM | 13800 nM | > 67 µM | > 50000 nM | > 100 µM | – | > 100 µM | 34100 nM | 50 µM and > 100 µM | 18200 nM | 50 µM and > 100 µM | > 50000 nM | > 100 µM | 22400 nM | 50 µM and > 70 µM | > 50000 nM | > 100 µM
O=c1c2ccccc2sc2c(CO)ccc(NCCN3CCCCC3)c12 | – | 7.92 µM | – | 9.97 µM | – | 11 µM | – | 12.1 µM | – | 11.4 µM | – | 4.6 µM | – | 13.1 µM | – | 15.6 µM | – | 3.86 µM | – | 14.5 µM
Cc1nn(-c2ccc(Cl)cc2)c2ncnc(N/N=C/c3ccccc3O)c12 | 1100 nM and 571 nM | > 100 µM | 372 nM and 356 nM | 16.9 µM and 17.4 µM | 335 nM and 305 nM | 40.7 µM | 2330 nM and 1860 nM | 63.4 µM and > 100 µM | 887 nM and 399 nM | > 100 µM | 699 nM and 714 nM | > 100 µM | 401 nM and 312 nM | 15.9 µM and > 37.3 µM | 1600 nM and 910 nM | 19.9 µM and 6.95 µM | 874 nM and 321 nM | > 69.6 µM | 1240 nM and 1590 nM | 37.2 µM and > 100 µM
O=C1/C(=C/c2ccc(Cl)c(Cl)c2)CN(C(=O)CCN2CCC(=NO)CC2)C/C1=C\c1ccc(Cl)c(Cl)c1 | 827 nM | 2.12 µM | 1020 nM | 4.04 µM | 1480 nM | 4.37 µM | 1610 nM | 3.18 µM | 333 nM | 1.74 µM | 253 nM | 0.84 µM | 1060 nM | 2.88 µM | 664 nM | 1.87 µM | 369 nM | 1.59 µM | 2050 nM | 4.3 µM
CC(Br)C(=O)NC(CO)C(=O)O (configuration not stated) | – | > 100 µM | – | > 100 µM | – | > 100 µM | – | > 100 µM | – | > 100 µM | – | > 100 µM | – | > 100 µM | – | > 100 µM | – | > 100 µM | – | > 100 µM
Cn1nccc1Nc1nccc(-c2ccn([C@H](CO)c3ccc(Cl)c(F)c3)c(=O)c2)n1 | 3160 nM | > 100 µM | > 100000 nM | > 100 µM | 1890 nM | 30.4 µM | 24000 nM | > 100 µM | 27400 nM | > 100 µM | 21600 nM | 59.3 µM | 38100 nM | > 100 µM | 92.2 nM | > 59.3 µM | 13100 nM | > 51.9 µM | 275 nM | 27.2 µM
CC(C)(CO)CNC(=O)c1ccc2[nH]c(O)c(N=Nc3ccc(S(N)(=O)=O)cc3)c2c1 | > 25000 nM | > 25 µM | > 25000 nM | > 25 µM | > 25000 nM | > 25 µM | > 25000 nM | > 25 µM | > 25000 nM | > 25 µM | > 25000 nM | > 25 µM | > 25000 nM | > 25 µM | > 25000 nM | > 25 µM | > 25000 nM | > 25 µM | > 25000 nM | > 25 µM
Cc1c(C(=N)C(C#N)C#N)c(=N)oc2c1ccc1ccccc12 | 22200 nM | > 100 µM | 25200 nM | > 100 µM | 8760 nM | 85.8 µM | 30500 nM | > 100 µM | 5340 nM | > 100 µM | 20800 nM | 78.3 µM | 46500 nM | > 100 µM | 13000 nM | 32.3 µM | 8000 nM | 25.7 µM | 18000 nM | 56.4 µM
COc1ccc(OC)c(NCC(=O)n2nc(/C=C\c3ccc(O)c(OC)c3)cc2/C=C\c2ccc(O)c(OC)c2)c1 | 1500 nM | 9.6 µM | 3500 nM | > 100 µM | 989 nM | 5.05 µM | 4660 nM | 30.1 µM | 1610 nM | 10.4 µM | 702 nM | 3.54 µM | 2370 nM | > 100 µM | 1560 nM | 4.72 µM | 1310 nM | 3.28 µM | 2300 nM | 7.04 µM
CCN=c1sc2c(n1NC(=O)c1cc3ccc1CCc1ccc(cc1)CC3)C(=O)c1ccccc1C2=O | 601 nM | 1.09 µM | 814 nM | 2.39 µM | 815 nM | 2.3 µM | 9540 nM | 16.5 µM | 592 nM | 1.3 µM | 769 nM | 2.2 µM | 604 nM | 1.62 µM | 593 nM | 1.2 µM | 540 nM | 1.31 µM | 726 nM | 1.56 µM
CN(C)CCCC1(c2ccc(F)cc2)OCc2cc(-c3cccc4[nH]ccc34)ccc21 (configuration not stated) | 1760 nM | 3.31 µM | 1720 nM | 3.38 µM | 1810 nM | 3.59 µM | 1700 nM | 3.2 µM | 1550 nM | 3.25 µM | 1770 nM | 4.12 µM | 1580 nM | 3.03 µM | 1760 nM | 3.23 µM | 1590 nM | 3.22 µM | 1790 nM | 3.59 µM
COc1ccc2c(N)ncc(C#Cc3cc(C(=O)Nc4ccc(CN5CCN(C)CC5)c(C(F)(F)F)c4)cnc3C)c2c1 | 647 nM | 3.1 µM | 1690 nM | 7.42 µM | 1630 nM | 11.1 µM | 821 nM | 2.19 µM | 745 nM | 2.63 µM | 775 nM | 2.25 µM | 1210 nM | 4.78 µM | 1300 nM | 5.92 µM | 571 nM | 1.2 µM | 771 nM | 2.67 µM
